From patent US9073855B2, “BCL-2 selective apoptosis-inducing agents for the treatment of cancer and immune diseases” (AbbVie Inc., priority 2008, dated 2015)

What was measured:
GST-Bcl-XL = GST-Bcl-XL (Homo sapiens, UniProt Q07817); test: TR-FRET binding assay, GST-Bcl-XL with F-Bak peptide probe; conditions: TR-FRET Binding Affinity, GST-Bcl-XL, F-Bak peptide probe
Summary of the method: (§1)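 Competitive TR-FRET: GST-fusion protein, fluorescent Bak peptide probe and Tb-labelled anti-GST antibody incubated with compound dilution series (starting 50 μM as 2× stock, 10% DMSO) for 3 h at RT. Excitation 340/35 nm; Ki derived via Wang's exact competitive-binding equation.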

FL5.12/Bcl-2 cells = test: FL5.12/Bcl-2 cell viability assay under IL-3 withdrawal (CellTitre Glo); assay type: cell-based, murine; conditions: Mus musculus, IL-3 withdrawn 48 hrs, then 24 hrs with compound
Summary of the method: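 Murine IL-3-dependent FL5.12 cells stably overexpressing Bcl-2 were deprived of IL-3 (WEHI-3B conditioned medium) for 48 h, then exposed to various compound concentrations for 24 h at 37 °C. Viability read by CellTiter-Glo luminescence.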

GST-Bcl-2 = GST-Bcl-2 (Homo sapiens, UniProt P10415); test: TR-FRET binding assay, GST-Bcl-2 with F-Bak peptide probe; conditions: for Ki: TR-FRET Binding Affinity, GST-Bcl-2, F-Bak peptide probe; for Binding selectivity ratio (Bcl-XL Ki/Bcl-2 Ki): ratio of TR-FRET Ki values, Bcl-XL over Bcl-2
Chain of GST-Bcl-2 (P10415 whole entry): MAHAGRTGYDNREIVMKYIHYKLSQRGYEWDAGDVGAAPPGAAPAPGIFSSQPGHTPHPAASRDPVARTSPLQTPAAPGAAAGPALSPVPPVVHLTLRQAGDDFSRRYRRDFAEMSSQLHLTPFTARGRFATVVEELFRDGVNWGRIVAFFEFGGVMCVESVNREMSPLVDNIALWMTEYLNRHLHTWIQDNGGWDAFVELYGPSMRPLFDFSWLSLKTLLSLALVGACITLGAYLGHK
Summary of the method: as §1

Chain of GST-Bcl-XL (Q07817 whole entry, the tested form may be a part): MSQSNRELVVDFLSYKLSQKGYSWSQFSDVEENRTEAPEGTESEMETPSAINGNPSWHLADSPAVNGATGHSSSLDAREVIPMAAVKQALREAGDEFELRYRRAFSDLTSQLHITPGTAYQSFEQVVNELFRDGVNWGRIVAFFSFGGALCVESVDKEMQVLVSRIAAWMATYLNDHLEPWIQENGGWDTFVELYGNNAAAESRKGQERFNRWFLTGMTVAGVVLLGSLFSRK

`O=C(NS(=O)(=O)c1ccc(NCC2CCOCC2)c([N+](=O)[O-])c1)c1ccc(N2CCN(Cc3cc(OCCO)ccc3-c3ccc(Cl)cc3)CC2)cc1Oc1cccc2[nH]ccc12` [Example 213, 4-(4-{[4′-chloro-4-(2-hydroxyethoxy)-1,1′-biphenyl-2-yl]methyl}piperazin-1-yl)-2-(1H-indol-4-yloxy)-N-({3-nitro-4-[(tetrahydro-2H-pyran-4-ylmethyl)amino]phenyl}sulfonyl)benzamide] showed a Ki (GST-Bcl-XL) greater than 660 nM, an EC50 (FL5.12/Bcl-2 cells) of 432 nM and a Ki (GST-Bcl-2) of less than 0.01 nM.

In the case of `CC1(C)CCC(CN2CCN(c3ccc(C(=O)NS(=O)(=O)c4cnc(OCC5(F)CCOCC5)c(Cl)c4)c(Oc4cccc5[nH]ccc45)c3)CC2)=C(c2ccc(Cl)cc2)C1` [Example 405, N-({5-chloro-6-[(4-fluorotetrahydro-2H-pyran-4-yl)methoxy]pyridin-3-yl}sulfonyl)-4-(4-{[2-(4-chlorophenyl)-4,4-dimethylcyclohex-1-en-1-yl]methyl}piperazin-1-yl)-2-(1H-indol-4-yloxy)benzamide], the Ki (GST-Bcl-XL) is reported as 55.3 nM, the EC50 (FL5.12/Bcl-2 cells) is reported as 11.6 nM and the Ki (GST-Bcl-2) is reported as 0.04 nM. For the same compound, the “Binding selectivity ratio (Bcl-XL Ki/Bcl-2 Ki)” value (“Binding selectivity ratio” below) (GST-Bcl-2) was 1394.8.

For `CN1CCC(Nc2ccc(S(=O)(=O)NC(=O)c3ccc(N4CCN(Cc5cc(OCCO)ccc5-c5ccc(Cl)cc5)CC4)cc3Oc3cccc4[nH]ccc34)cc2[N+](=O)[O-])CC1` [Example 221, 4-(4-{[4′-chloro-4-(2-hydroxyethoxy)-1,1′-biphenyl-2-yl]methyl}piperazin-1-yl)-2-(1H-indol-4-yloxy)-N-({4-[(1-methylpiperidin-4-yl)amino]-3-nitrophenyl}sulfonyl)benzamide], the Ki (GST-Bcl-XL) was 170 nM, the EC50 (FL5.12/Bcl-2 cells) was 149 nM and the Ki (GST-Bcl-2) was 0.057 nM.

For `CC1(C)CCC(CN2CCN(c3ccc(C(=O)NS(=O)(=O)c4ccc(NC5CCN(C6CCOCC6)CC5)c([N+](=O)[O-])c4)c(Oc4cccnc4)c3)CC2)=C(c2ccc(Cl)cc2)C1` [Example 398, 4-(4-{[2-(4-chlorophenyl)-4,4-dimethylcyclohex-1-en-1-yl]methyl}piperazin-1-yl)-N-({3-nitro-4-[(1-tetrahydro-2H-pyran-4-ylpiperidin-4-yl)amino]phenyl}sulfonyl)-2-(pyridin-3-yloxy)benzamide], the Ki (GST-Bcl-XL) was 83.4 nM, the EC50 (FL5.12/Bcl-2 cells) was 334 nM and the Ki (GST-Bcl-2) was 1.23 nM. For the same compound, the “Binding selectivity ratio” value (GST-Bcl-2) was 67.7.

With `CC1(C)CCC(CN2CCN(c3ccc(C(=O)NS(=O)(=O)c4ccc(NN5CCCCC5)c([N+](=O)[O-])c4)c(Oc4cccc5[nH]ccc45)c3)CC2)=C(c2ccc(Cl)cc2)C1` [Example 283, 4-(4-{[2-(4-chlorophenyl)-4,4-dimethylcyclohex-1-en-1-yl]methyl}piperazin-1-yl)-2-(1H-indol-4-yloxy)-N-{[3-nitro-4-(piperidin-1-ylamino)phenyl]sulfonyl}benzamide] the Ki (GST-Bcl-XL) was greater than 660 nM, the EC50 (FL5.12/Bcl-2 cells) was greater than 500 nM and the Ki (GST-Bcl-2) was 47.5 nM.

`CN1CCC(COc2ccc(S(=O)(=O)NC(=O)c3ccc(N4CCN(CC5=C(c6ccc(Cl)cc6)CC(C)(C)CC5)CC4)cc3Oc3ccc4[nH]ccc4c3)cc2[N+](=O)[O-])CC1` [Example 354, 4-(4-{[2-(4-chlorophenyl)-4,4-dimethylcyclohex-1-en-1-yl]methyl}piperazin-1-yl)-2-(1H-indol-5-yloxy)-N-({4-[(1-methylpiperidin-4-yl)methoxy]-3-nitrophenyl}sulfonyl)benzamide] showed a Ki (GST-Bcl-XL) of 5.41 nM, an EC50 (FL5.12/Bcl-2 cells) of 5.6 nM and a Ki (GST-Bcl-2) of 0.036 nM.

Compound `C#Cc1cc(S(=O)(=O)NC(=O)c2ccc(N3CCN(CC4=C(c5ccc(Cl)cc5)CC(C)(C)CC4)CC3)cc2Oc2cccc3[nH]ccc23)cnc1OCC1CCOCC1` [Example 391, 4-(4-{[2-(4-chlorophenyl)-4,4-dimethylcyclohex-1-en-1-yl]methyl}piperazin-1-yl)-N-{[5-ethynyl-6-(tetrahydro-2H-pyran-4-ylmethoxy)pyridin-3-yl]sulfonyl}-2-(1H-indol-4-yloxy)benzamide] has a Ki (GST-Bcl-XL) greater than 660 nM, an EC50 (FL5.12/Bcl-2 cells) greater than 500 nM and a Ki (GST-Bcl-2) of 3.54 nM.

With `CC(C1=C(c2ccc(Cl)cc2)CC(C)(C)CC1)N1CCN(c2ccc(C(=O)NS(=O)(=O)c3ccc(NN4CCN(C)CC4)c([N+](=O)[O-])c3)c(Oc3ccc4[nH]ccc4c3)c2)CC1` (stereo not drawn) [Example 254, 4-(4-{1-[2-(4-chlorophenyl)-4,4-dimethylcyclohex-1-en-1-yl]ethyl}piperazin-1-yl)-2-(1H-indol-5-yloxy)-N-({4-[(4-methylpiperazin-1-yl)amino]-3-nitrophenyl}sulfonyl)benzamide] the Ki (GST-Bcl-XL) was 53.3 nM, the EC50 (FL5.12/Bcl-2 cells) was 16.9 nM and the Ki (GST-Bcl-2) was 0.126 nM.

For `CC1(C)CCC(CN2CCN(c3ccc(C(=O)NS(=O)(=O)c4ccc(NCCCN5CCS(=O)(=O)CC5)c([N+](=O)[O-])c4)c(Oc4cccc5[nH]ccc45)c3)CC2)=C(c2ccc(Cl)cc2)C1` [Example 295, 4-(4-{[2-(4-chlorophenyl)-4,4-dimethylcyclohex-1-en-1-yl]methyl}piperazin-1-yl)-N-[(4-{[3-(1,1-dioxidothiomorpholin-4-yl)propyl]amino}-3-nitrophenyl)sulfonyl]-2-(1H-indol-4-yloxy)benzamide], the Ki (GST-Bcl-XL) was 110 nM, the EC50 (FL5.12/Bcl-2 cells) was 46.3 nM and the Ki (GST-Bcl-2) was 0.183 nM.

In the case of `O=C(NS(=O)(=O)c1ccc(NCC2CCOCC2)c([N+](=O)[O-])c1)c1ccc(N2CCN(CC3=C(c4ccc(Cl)cc4)CCC(N4CCOCC4)C3)CC2)cc1Oc1ccc2[nH]ccc2c1` (stereo not drawn) [Example 249, 4-(4-{[2-(4-chlorophenyl)-5-morpholin-4-ylcyclohex-1-en-1-yl]methyl}piperazin-1-yl)-2-(1H-indol-5-yloxy)-N-({3-nitro-4-[(tetrahydro-2H-pyran-4-ylmethyl)amino]phenyl}sulfonyl)benzamide], the Ki (GST-Bcl-XL) is reported as greater than 660 nM, the EC50 (FL5.12/Bcl-2 cells) is reported as 41.2 nM and the Ki (GST-Bcl-2) is reported as 0.09 nM.

Compound `C[C@@H](c1ccccc1-c1ccc(Cl)cc1)N1CCN(c2ccc(C(=O)NS(=O)(=O)c3ccc(NCC4CCOCC4)c([N+](=O)[O-])c3)c(Oc3cccc4[nH]ccc34)c2)CC1` [Example 256, 4-{4-[(1S)-1-(4′-chloro-1,1′-biphenyl-2-yl)ethyl]piperazin-1-yl}-2-(1H-indol-4-yloxy)-N-({3-nitro-4-[(tetrahydro-2H-pyran-4-ylmethyl)amino]phenyl}sulfonyl)benzamide] has a Ki (GST-Bcl-XL) greater than 660 nM, an EC50 (FL5.12/Bcl-2 cells) of 8.89 nM and a Ki (GST-Bcl-2) of 0.12 nM.

In the case of `CC1(C)CCC(CN2CCN(c3ccc(C(=O)NS(=O)(=O)c4ccc(S(=O)(=O)N5CCOCC5)cc4)c(Oc4ccc5[nH]ccc5c4)c3)CC2)=C(c2ccc(Cl)cc2)C1` [Example 361, 4-(4-{[2-(4-chlorophenyl)-4,4-dimethylcyclohex-1-en-1-yl]methyl}piperazin-1-yl)-2-(1H-indol-5-yloxy)-N-{[4-(morpholin-4-ylsulfonyl)phenyl]sulfonyl}benzamide], the Ki (GST-Bcl-XL) is reported as greater than 660 nM, the EC50 (FL5.12/Bcl-2 cells) is reported as greater than 500 nM and the Ki (GST-Bcl-2) is reported as 7.13 nM.

`CCN(CC)C1CCC(Nc2ccc(S(=O)(=O)NC(=O)c3ccc(N4CCN(CC5=C(c6ccc(Cl)cc6)CC(C)(C)CC5)CC4)cc3Oc3ccc4[nH]ccc4c3)cc2[N+](=O)[O-])CC1` (stereo not drawn) [Example 201, 4-(4-{[2-(4-chlorophenyl)-4,4-dimethylcyclohex-1-en-1-yl]methyl}piperazin-1-yl)-N-[(4-{[4-(diethylamino)cyclohexyl]amino}-3-nitrophenyl)sulfonyl]-2-(1H-indol-5-yloxy)benzamide] was tested, and the Ki (GST-Bcl-XL) was 24.6 nM, the EC50 (FL5.12/Bcl-2 cells) was 17.4 nM and the Ki (GST-Bcl-2) was 0.125 nM.

For `CC1(C)CCC(CN2CCN(c3ccc(C(=O)NS(=O)(=O)c4cnc(OCC5CCOCC5)c(-c5nccs5)c4)c(Oc4ccc5[nH]ccc5c4)c3)CC2)=C(c2ccc(Cl)cc2)C1` [Example 331, 4-(4-{[2-(4-chlorophenyl)-4,4-dimethylcyclohex-1-en-1-yl]methyl}piperazin-1-yl)-2-(1H-indol-5-yloxy)-N-{[6-(tetrahydro-2H-pyran-4-ylmethoxy)-5-(1,3-thiazol-2-yl)pyridin-3-yl]sulfonyl}benzamide], the Ki (GST-Bcl-XL) was greater than 660 nM, the EC50 (FL5.12/Bcl-2 cells) was greater than 500 nM and the Ki (GST-Bcl-2) was 8.27 nM.

In the case of `CC1(C)CCC(CN2CCN(c3ccc(C(=O)NS(=O)(=O)c4ccc(NCC5CCOCC5)c([N+](=O)[O-])c4)c(Oc4cccc5c4CCNC5)c3)CC2)=C(c2ccc(Cl)cc2)C1` [Example 399, 4-(4-{[2-(4-chlorophenyl)-4,4-dimethylcyclohex-1-en-1-yl]methyl}piperazin-1-yl)-N-({3-nitro-4-[(tetrahydro-2H-pyran-4-ylmethyl)amino]phenyl}sulfonyl)-2-(1,2,3,4-tetrahydroisoquinolin-5-yloxy)benzamide], the Ki (GST-Bcl-XL) is reported as greater than 660000 nM, the EC50 (FL5.12/Bcl-2 cells) is reported as greater than 500 nM and the Ki (GST-Bcl-2) is reported as 2.92 nM. The “Binding selectivity ratio” value (GST-Bcl-2) was greater than 225764.5.

Compound `CC1(C)CCC(CN2CCN(c3ccc(C(=O)NS(=O)(=O)c4cnc(OCCN5CCOCC5)c(C#N)c4)c(Oc4ccc5[nH]ccc5c4)c3)CC2)=C(c2ccc(Cl)cc2)C1` [Example 388, 4-(4-{[2-(4-chlorophenyl)-4,4-dimethylcyclohex-1-en-1-yl]methyl}piperazin-1-yl)-N-{[5-cyano-6-(2-morpholin-4-ylethoxy)pyridin-3-yl]sulfonyl}-2-(1H-indol-5-yloxy)benzamide] has a Ki (GST-Bcl-XL) of 34.8 nM, an EC50 (FL5.12/Bcl-2 cells) of 82.9 nM and a Ki (GST-Bcl-2) of 0.188 nM.

`O=C(NS(=O)(=O)c1ccc(OCC2CCOCC2)c([N+](=O)[O-])c1)c1ccc(N2CCN(Cc3ccc(C(F)(F)F)cc3-c3ccc(Cl)cc3)CC2)cc1Oc1ccc2[nH]ccc2c1` [Example 340, 4-(4-{[4′-chloro-5-(trifluoromethyl)-1,1′-biphenyl-2-yl]methyl}piperazin-1-yl)-2-(1H-indol-5-yloxy)-N-{[3-nitro-4-(tetrahydro-2H-pyran-4-ylmethoxy)phenyl]sulfonyl}benzamide] gave a Ki (GST-Bcl-XL) greater than 660 nM, an EC50 (FL5.12/Bcl-2 cells) greater than 500 nM and a Ki (GST-Bcl-2) of 7.59 nM.
